How the values were obtained:
[1] = test system: Stenotrophomonas maltophilia IS 6081; assay: Antimicrobial MIC / checkerboard assay for synergy with meropenem; type: cell-based; settings: S. maltophilia IS 6081, meropenem + compound
Procedure: (§1) Assays were conducted as described by Weigand et al. (Weigand, I.; Hilpert, K.; Hancock, R. E. Nat. Protocols 2008, 3, 163-175).
(§2) To determine the lowest concentration of an antimicrobial agent that inhibits visible growth of a microorganism, 50 μL of compound solution and 50 μL of buffer solution were added to each well at the desired concentration(s) (i.e. 4×the final concentration) as well as a zero control. Stock solutions of 10 mg/mL, were prepared in DMSO, followed by two-fold serial dilutions in Müeller-Hinton media and 100 μL of bacteria (ca. 5×10^5 CFU/mL) was added to each well. Plate counts were performed on the control wells to determine bacterial innoculum level. The innoculum was prepared by taking an overnight culture in Müeller-Hinton media and diluting to McFarland's 0.5 standard, and diluting a further 1:100 prior to addition to the plate. Lanes with no bacteria added served as sterility controls and lanes with no compound served as growth controls. Organisms were allowed to grow overnight at 37° C. in a humid environment and the plates were monitored at 625 nm for growth. MIC was determined to be the last well with no growth.
(§3) In the checkerboard assay one compound is serially diluted along the ordinate, and the second compound is serially diluted along the abscissa. […] A 50 μL aliquot of the compound was added to each well at the desired concentration(s) (i.e. 4×the final concentration) as well as a zero control. Stock solutions of 10 mg/mL of compound were prepared in DMSO, followed by two-fold serial dilutions in Müeller-Hinton media. Finally, 100 μL of bacteria (ca. 5×10^5 CFU/mL) was added to each well. Plate counts were performed on the control wells. Innoculum was prepared by taking an overnight culture in Müeller-Hinton media and diluting to McFarland's 0.5 standard, and diluting a further 1:100 prior to addition to the plate. Lanes with no bacteria added served as sterility controls and lanes with no meropenem or compound served as growth controls. The final volume in each well was 200 μL. The plates were allowed to grow overnight at 37° C. in a humid environment and were monitored at 625 nm for growth. […] Sterility controls and growth controls were included on each plate. The fractional inhibitory concentration (FIC) was determined as follows:
(§4) Results were interpreted in the following way: Synergistic if FIC≦0.5; Additive if […]; Indifferent if […]; Antagonistic if FIC≧2.0.

[2] = test system: Pseudomonas aeruginosa IS 6225; assay: as above; type: cell-based; settings: P. aeruginosa IS 6225, meropenem + compound
Procedure: as §1, §2, §3, §4

[3] = test system: Chryseobacterium meningosepticum IS 5824; assay: as above; type: cell-based; settings: for FIC: meropenem + compound, checkerboard
Procedure: as §1, §2, §3, §4

[4] = test system: Pseudomonas aeruginosa C-10; assay: as above; type: cell-based; settings: P. aeruginosa C-10; for FIC: meropenem + compound, checkerboard
Procedure: as §1, §2, §3, §4

[5] = test system: Stenotrophomonas maltophilia IS 6069; assay: as above; type: cell-based; settings: S. maltophilia IS 6069, meropenem + compound
Procedure: as §1, §2, §3, §4

[6] = test system: Stenotrophomonas maltophilia IS 5568; assay: as above; type: cell-based; settings: for FIC: S. maltophilia IS 5568, meropenem + compound, checkerboard
Procedure: as §1, §2
as §3, with “Lanes with no bacteria added served as sterility controls and lanes with no meropenem or compound served as growth controls.” left out
as §4

[7] = test system: Pseudomonas aeruginosa IS 5563; assay: as above; type: cell-based; settings: for FIC: P. aeruginosa IS 5563, meropenem + compound, checkerboard
Procedure: as §1, §2
as §3, with “Lanes with no bacteria added served as sterility controls and lanes with no meropenem or compound served as growth controls.” left out
as §4

[8] = target: T1, IMP-1 (Serratia marcescens, UniProt P52699); assay: Inhibition of IMP-1-catalyzed hydrolysis of meropenem in vitro (310 nm); type: biochemical; settings: for protection of meropenem from IMP-1-catalyzed hydrolysis in vitro: IMP-1 12 nM, meropenem 200 μM, test substance 100 μM, 310 nm
T1 construct: made in house; host or cells: Escherichia coli BL21(DE3) carrying pCIP4
T1 sequence (P52699 19-246 limits assumed): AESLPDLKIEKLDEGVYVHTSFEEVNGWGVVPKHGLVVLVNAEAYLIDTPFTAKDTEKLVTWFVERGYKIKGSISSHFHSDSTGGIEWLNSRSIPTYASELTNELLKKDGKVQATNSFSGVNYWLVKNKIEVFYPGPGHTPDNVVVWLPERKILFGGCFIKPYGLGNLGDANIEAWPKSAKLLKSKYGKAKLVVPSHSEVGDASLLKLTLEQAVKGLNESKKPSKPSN

[9] = target: T2, IMP-1 metallo-β-lactamase (Serratia marcescens, UniProt P52699); assay: Inhibition of β-lactamases, nitrocefin hydrolysis; type: biochemical
T2 construct: made in house; host or cells: Escherichia coli BL21(DE3) carrying pCIP4
T2 sequence (P52699 19-246, looked up): as the sequence (P52699 19-246 limits assumed) above
Description: IMP-1 metallo-β-lactamase was expressed in Esherichia coli BL21(DE3) carrying pCIP4 and purified as reported by Laraki et al. (Antimicrob. Agents Chemother. 1999, 43, 902-906). The homogeneity of the protein was confirmed by SDS-PAGE according to the method of Laemmli (Nature 1970, 227, 680-685). The molecular weight of purified IMP-1, Mr=25,112±0.5 Da, as determined by ESI-MS, was in agreement with that deduced from its amino acid sequence (Laraki et al. Antimicrob. Agents Chemother. 1999, 43, 890-901).
Assay conditions for IC50 determinations involved enzyme concentrations ranging between 2 and 6 nM. The concentration used for the nitrocefin substrate was 100 μM. Assays with OXA-10 and OXA-45 were conducted at pH 7.0 with 100 mM sodium phosphate buffer containing 25 mM sodium bicarbonate. Assays with KPC-2 and GC1 were performed at pH 7.0 in 50 mM HEPES buffer and assays with IMP-1 and VIM-2 were performed in the same buffer with the addition of 500 mM NaCl and 1 μM ZnSO4. BSA was used with all enzymes (except OXA-10 and KPC-2) at concentrations of 0.5-1.0 μg/mL.
Inhibitors were pre-incubated for 10 minutes at room temperature with enzyme assay solutions prior to the addition of the nitrocefin. These compounds were dissolved in DMSO and prepared at various concentrations such that the final concentration of DMSO was 1% during the pre-incubation. The reaction was initiated by the addition of the pre-incubated enzyme-cyclobutanone solution (90 μL) to a solution of nitrocefin in buffer (10 μL). Enzymatic activity was determined using the initial rate of increase in absorbance at 482 nm

[10] = test system: β-lactamases; assay: β-Lactamase inhibition, result in words; type: biochemical
Description: In preferred embodiments, the compounds incorporate a good leaving group at the C3′ carbon that can be readily expelled as an anion. In some embodiments, the leaving group is a C3′-benzoylthio group, which may be substituted or unsubstituted, according to the definitions provided above for substituted or unsubstituted.
This effect correlates with the expected better leaving group ability of the benzoylthio group in the hydrolysis product versus the benzoate group in the comparative compound.

Structure (SMILES) | FIC [1] | FIC [2] | FIC ([3]; C. meningosepticum IS 5824) | FIC [4] | FIC [5] | FIC [6] | FIC [7] | also measured
O=C(Cc1ccc(F)cc1)N[C@@H]1C(=O)N2C(C(=O)O)=C(CSC(=O)c3ccccc3)CS[C@H]12 [CMPD E] | 1.03 | 2 | 0.2578 | 0.625 | 0.1875 | 0.126 | 0.1269 | 
COc1cccc(CC(=O)N[C@@H]2C(=O)N3C(C(=O)O)=C(CSC(=O)c4ccccc4)CS[C@H]23)c1 [CMPD F] | 0.281 | 3 | 0.2578 | 1.5 | 0.1875 | 0.126 | 0.2519 | 
O=C(Cc1cccs1)N[C@@H]1C(=O)N2C(C(=O)O)=C(CSC(=O)c3ccccc3)CS[C@H]12 [CMPD B] | 0.1328 | 0.375 | 0.5078 |  | 0.1875 | 0.1289 | 0.1328 | 
O=C(Cc1ccc(Cl)cc1)N[C@@H]1C(=O)N2C(C(=O)O)=C(CSC(=O)c3ccccc3)CS[C@H]12 [CMPD D] | 1.03 | 2 | 0.2578 | 1 | 0.1875 | 0.126 | 0.2519 | 
CO/N=C(\C(=O)N[C@@H]1C(=O)N2C(C(=O)O)=C(CSC(=O)c3ccco3)CS[C@H]12)c1csc(N)n1 [ceftiofur] |  |  |  |  |  |  |  | performance as inhibitor [8]: poor performance; protection of meropenem from IMP-1-catalyzed hydrolysis in vitro [8]: relatively poor protection
C[C@@H](O)[C@H]1C(=O)N2C(C(=O)O)=C(S[C@@H]3CN[C@H](C(=O)N(C)C)C3)[C@H](C)[C@H]12 [Mero, meropenem, reference compound] |  |  |  |  |  |  |  | MIC Mero Alone ([3]; C. meningosepticum IS 5824): 32 µg/mL; MIC ([3]; Elizabethkingia meningoseptica, IS5824, read-out: MIC Mero Alone, C. meningosepticum IS 5824): 64 µg/mL; MIC ([4]; Pseudomonas aeruginosa, C10, read-out: MIC Mero Alone): 16 µg/mL; MIC ([6]; Stenotrophomonas maltophilia, IS5568, read-out: MIC Mero Alone, S. maltophilia IS 5568): 64 µg/mL; MIC ([7]; Pseudomonas aeruginosa, IS5563, read-out: MIC Mero Alone, P. aeruginosa IS 5563): 64 µg/mL
CC(=O)SCC1=C(C(=O)O)N2C(=O)[C@@H](NC(=O)Cc3cccs3)[C@H]2SC1 [Example 12, (6R,7R)-3-(acetylthiomethyl)-8-oxo-7-(2-(thiophen-2-yl)acetamido)-5-thia-1-azabicyclo[4.2.0]oct-2-ene-2-carboxylic acid] |  |  |  |  |  |  |  | performance as inhibitor [8]: poor performance
OC(=S)c1ccccc1 [benzoylthio, reference compound] |  |  |  |  |  |  |  | inhibition of the MBL IMP-1 [9]: poor inhibitor
O=C(Cc1cccs1)NC1C(=O)N2C(C(=O)O)=C(COC(=O)c3ccccc3)CSC12 (centres unmarked) [oxygen analogue, reference compound] |  |  |  |  |  |  |  | β-lactamase inhibition [10]: substrate but not an inhibitor
O=C(Cc1ccc(F)cc1)N[C@@H]1C(=O)N2C(C(=O)O)=C(CSC(=O)c3ccccc3)CS[C@H]12 [Example 16, (6R,7R)-3-(benzoylthiomethyl)-7-(2-(4-fluorophenyl)acetamido)-8-oxo-5-thia-1-azabicyclo[4.2.0]oct-2-ene-2-carboxylic acid] |  |  |  |  |  |  |  | protection of meropenem from IMP-1-catalyzed hydrolysis in vitro [8]: good protection

Source: US20120329770A1, “CEPHALOSPORIN DERIVATIVES USEFUL AS BETA-LACTAMASE INHIBITORS AND COMPOSITIONS AND METHODS OF USE THEREOF” (priority 2010, published 2012)
